Test results published in the NIST ThermoML archive (doi:10.1016/j.fluid.2004.09.013).

Settings: for mass density: Fluid (supercritical or subcritical phases), Vibrating tube method; for vapor or sublimation pressure: Liquid

C/C=C/C [(E)-2-butene]
Settings | mass density [kg/m3]
273.24 K, 553 kPa | 627.87
273.24 K, 4992 kPa | 633.27
273.24 K, 9995 kPa | 638.88
273.24 K, 14991 kPa | 644.04
273.24 K, 19997 kPa | 648.86
273.24 K, 24996 kPa | 653.38
273.24 K, 29993 kPa | 657.62
273.24 K, 34997 kPa | 661.64
273.24 K, 39989 kPa | 665.43
278.25 K, 553 kPa | 622.2
278.25 K, 4990 kPa | 627.88
278.25 K, 10005 kPa | 633.76
278.25 K, 15007 kPa | 639.16
278.25 K, 20007 kPa | 644.16
278.25 K, 24990 kPa | 648.82
278.25 K, 30005 kPa | 653.23
278.25 K, 34987 kPa | 657.36
278.25 K, 40004 kPa | 661.3
283.26 K, 551 kPa | 616.48
283.26 K, 4990 kPa | 622.46
283.26 K, 9993 kPa | 628.6
283.26 K, 15009 kPa | 634.25
283.26 K, 20003 kPa | 639.45
283.26 K, 24994 kPa | 644.29
283.26 K, 29985 kPa | 648.83
283.26 K, 35008 kPa | 653.12
283.26 K, 40005 kPa | 657.17
288.27 K, 548 kPa | 610.68
288.27 K, 4995 kPa | 616.99
288.27 K, 9994 kPa | 623.43
288.27 K, 14992 kPa | 629.3
288.27 K, 19992 kPa | 634.71
288.27 K, 24999 kPa | 639.75
288.27 K, 29993 kPa | 644.44
288.27 K, 34985 kPa | 648.85
288.27 K, 40007 kPa | 653.04
293.28 K, 550 kPa | 604.8
293.28 K, 4985 kPa | 611.45
293.28 K, 9991 kPa | 618.21
293.28 K, 14993 kPa | 624.34
293.28 K, 19997 kPa | 629.98
293.28 K, 24993 kPa | 635.19
293.28 K, 29998 kPa | 640.06
293.28 K, 35013 kPa | 644.64
293.28 K, 39998 kPa | 648.92
298.29 K, 551 kPa | 598.83
298.29 K, 4989 kPa | 605.85
298.29 K, 14986 kPa | 619.36
298.29 K, 19984 kPa | 625.21
298.29 K, 25012 kPa | 630.65
298.29 K, 29999 kPa | 635.67
298.29 K, 34986 kPa | 640.36
298.29 K, 39987 kPa | 644.79
298.3 K, 9994 kPa | 612.96
303.3 K, 590 kPa | 592.81
303.3 K, 4982 kPa | 600.18
303.3 K, 9998 kPa | 607.66
303.3 K, 19987 kPa | 620.43
303.3 K, 25004 kPa | 626.07
303.3 K, 29998 kPa | 631.26
303.3 K, 35005 kPa | 636.13
303.31 K, 15001 kPa | 614.35
303.31 K, 39999 kPa | 640.69
308.31 K, 635 kPa | 586.69
308.31 K, 4989 kPa | 594.43
308.32 K, 10005 kPa | 602.29
308.32 K, 14996 kPa | 609.28
308.32 K, 19995 kPa | 615.63
308.32 K, 24994 kPa | 621.44
308.32 K, 29983 kPa | 626.82
308.32 K, 35009 kPa | 631.86
308.32 K, 39996 kPa | 636.54
313.2 K, 869 kPa | 580.91
313.21 K, 4996 kPa | 588.66
313.21 K, 10004 kPa | 596.91
313.21 K, 14989 kPa | 604.2
313.21 K, 20008 kPa | 610.83
313.21 K, 24999 kPa | 616.85
313.21 K, 29996 kPa | 622.41
313.21 K, 34992 kPa | 627.58
313.21 K, 39986 kPa | 632.41
318.21 K, 939 kPa | 574.67
318.21 K, 5000 kPa | 582.76
318.21 K, 9985 kPa | 591.43
318.21 K, 14990 kPa | 599.1
318.21 K, 20004 kPa | 605.99
318.21 K, 25005 kPa | 612.25
318.21 K, 29987 kPa | 617.99
318.21 K, 34986 kPa | 623.33
318.21 K, 39990 kPa | 628.31
323.22 K, 1000 kPa | 568.23
323.22 K, 4994 kPa | 576.71
323.22 K, 9997 kPa | 585.9
323.22 K, 14997 kPa | 593.93
323.22 K, 19997 kPa | 601.1
323.22 K, 24992 kPa | 607.59
323.22 K, 30007 kPa | 613.57
323.22 K, 34983 kPa | 619.06
323.22 K, 39993 kPa | 624.2
328.22 K, 1068 kPa | 561.65
328.22 K, 4987 kPa | 570.54
328.22 K, 9989 kPa | 580.26
328.22 K, 14994 kPa | 588.69
328.22 K, 19994 kPa | 596.17
328.22 K, 24990 kPa | 602.92
328.22 K, 30006 kPa | 609.12
328.22 K, 34984 kPa | 614.78
328.22 K, 39992 kPa | 620.09
333.22 K, 1143 kPa | 554.92
333.22 K, 5001 kPa | 564.29
333.22 K, 9997 kPa | 574.58
333.22 K, 15004 kPa | 583.44
333.22 K, 19992 kPa | 591.23
333.22 K, 25005 kPa | 598.27
333.22 K, 30004 kPa | 604.66
333.22 K, 35005 kPa | 610.54
333.22 K, 39985 kPa | 615.98
338.22 K, 1226 kPa | 548.04
338.22 K, 4986 kPa | 557.85
338.22 K, 10000 kPa | 568.81
338.22 K, 15000 kPa | 578.1
338.22 K, 20000 kPa | 586.27
338.22 K, 25000 kPa | 593.57
338.22 K, 29994 kPa | 600.18
338.22 K, 35008 kPa | 606.28
338.22 K, 39996 kPa | 611.89
343.22 K, 1315 kPa | 540.98
343.22 K, 29988 kPa | 595.68
343.22 K, 34990 kPa | 601.95
343.22 K, 39986 kPa | 607.75
343.23 K, 4999 kPa | 551.32
343.23 K, 10003 kPa | 562.95
343.23 K, 14999 kPa | 572.73
343.23 K, 19997 kPa | 581.25
343.23 K, 25007 kPa | 588.85
348.23 K, 1414 kPa | 533.71
348.23 K, 4992 kPa | 544.57
348.23 K, 10005 kPa | 556.98
348.23 K, 14992 kPa | 567.27
348.23 K, 19998 kPa | 576.19
348.23 K, 25013 kPa | 584.1
348.23 K, 29992 kPa | 591.18
348.23 K, 35003 kPa | 597.68
348.23 K, 39996 kPa | 603.63
353.23 K, 1522 kPa | 526.23
353.23 K, 4999 kPa | 537.68
353.23 K, 9984 kPa | 550.87
353.23 K, 14991 kPa | 561.76
353.23 K, 20002 kPa | 571.1
353.23 K, 25003 kPa | 579.31
353.23 K, 30000 kPa | 586.67
353.23 K, 35004 kPa | 593.37
353.23 K, 39995 kPa | 599.51
358.23 K, 1641 kPa | 518.52
358.23 K, 4984 kPa | 530.51
358.23 K, 10005 kPa | 544.73
358.23 K, 14998 kPa | 556.2
358.23 K, 20004 kPa | 565.97
358.23 K, 24987 kPa | 574.48
358.23 K, 29994 kPa | 582.12
358.23 K, 35007 kPa | 589.05
358.23 K, 39996 kPa | 595.37
363.23 K, 1765 kPa | 510.53
363.23 K, 5001 kPa | 523.21
363.23 K, 9988 kPa | 538.37
363.23 K, 14981 kPa | 550.47
363.23 K, 19993 kPa | 560.72
363.23 K, 25001 kPa | 569.62
363.23 K, 30001 kPa | 577.52
363.23 K, 34991 kPa | 584.64
363.23 K, 40008 kPa | 591.18
368.24 K, 1900 kPa | 502.25
368.24 K, 4996 kPa | 515.59
368.24 K, 9996 kPa | 531.94
368.24 K, 14998 kPa | 544.78
368.24 K, 19997 kPa | 555.48
368.24 K, 25002 kPa | 564.74
368.24 K, 29994 kPa | 572.92
368.24 K, 35003 kPa | 580.31
368.24 K, 39988 kPa | 587
373.23 K, 2021 kPa | 493.52
373.23 K, 4987 kPa | 507.69
373.23 K, 9991 kPa | 525.4
373.23 K, 14991 kPa | 538.98
373.23 K, 19999 kPa | 550.26
373.24 K, 24990 kPa | 559.83
373.24 K, 29992 kPa | 568.32
373.24 K, 34981 kPa | 575.91
373.24 K, 39982 kPa | 582.83
378.24 K, 2209 kPa | 484.69
378.24 K, 5019 kPa | 499.59
378.24 K, 10006 kPa | 518.69
378.24 K, 14990 kPa | 533.06
378.24 K, 20005 kPa | 544.87
378.24 K, 25019 kPa | 554.94
378.24 K, 30003 kPa | 563.71
378.24 K, 34996 kPa | 571.57
378.24 K, 40001 kPa | 578.7
383.24 K, 2379 kPa | 475.33
383.24 K, 5004 kPa | 490.95
383.24 K, 10000 kPa | 511.79
383.24 K, 14991 kPa | 527.07
383.24 K, 19991 kPa | 539.46
383.24 K, 24987 kPa | 549.92
383.24 K, 30002 kPa | 559.07
383.24 K, 34999 kPa | 567.19
383.24 K, 39984 kPa | 574.5
388.24 K, 2560 kPa | 465.51
388.24 K, 4995 kPa | 481.89
388.24 K, 9989 kPa | 504.7
388.24 K, 15004 kPa | 521.06
388.24 K, 20002 kPa | 534.05
388.24 K, 25003 kPa | 544.95
388.24 K, 29994 kPa | 554.4
388.24 K, 34999 kPa | 562.8
388.24 K, 39985 kPa | 570.33

Settings | vapor or sublimation pressure [kPa]
274.84 K | 105.09
278.8 K | 122.11
283.68 K | 145.21
287.85 K | 167.86
292.59 K | 196.47
296.57 K | 221.89
307.78 K | 313.51
313.09 K | 365.29
318.13 K | 418.65
327.87 K | 543.04
336.87 K | 680.67
345.89 K | 842.53
354.94 K | 1035.4
363.31 K | 1235
372.35 K | 1486.5
376.81 K | 1618.2
381.64 K | 1778.4
385.75 K | 1920.4
